Data on 32 compounds can be found in US8507538B2, “Selective heterocyclic sphingosine 1 phosphate receptor modulators” (Receptos, Inc., priority 2009, dated 2013).

In the assay the target is S1P1/EDG1 (Homo sapiens, UniProt P21453). The assay can be described thus: S1P1 CRE-bla CHOK1 reporter assay (inhibition of Forskolin induced cAMP). It is filed as cell-based. Conditions: agonist activity range, Table 2; read-out: S1P1 ACTIVITY
An excerpt:
A mammalian expression plasmid containing S1P1/EDG1 cloned into pcDNA3.1 was purchased from Missouri S&T cDNA Resource Centre. The nucleotide and amino acid sequence of human S1P1/EDG1 are published in Hla and Maciag (J Biol Chem, 265(1990), 9308-9313). S1P1/pcDNA3.1 was transfected into the CRE-bla CHO K1 (Invitrogen) cell line, and stable single cell clones were selected using standard techniques. Expression of functional SIP1/EDG1 receptor was confirmed by cell surface FACS with a S1P1 antibody (R&D Systems, clone 218713) and S1P-mediated inhibition of Forskolin induced cAMP.
Cells were seeded into 384-well black wall/clear bottom plates at 10^4 cells/well/19.5 μl assay media (DMEM-phenol free, 0.5% charcoal/dextran stripped serum, 2 mM glutamine, 0.1 mM NEAA, 1 mM Na-Pyruvate, 25 mM Hepes) and incubated for 18 hrs at 37° C. in 5% CO2. Dose response curves (10-point) were generated in 10 mM Hepes, 0.1% Pluronic F127, in the presence of Forskolin. Cells were treated with 0.5 μl compound in the presence of 2 μM Forskolin for 4 hrs at 37° C. The FRET-based β-lactamase fluorescent substrate (LiveBLAzer™ FRET B/G Loading Kit CC4-AM; Invitrogen) was prepared according to manufacturer's directions, and incubated with cells for 2 hrs at room temperature. Plates were read at Ex:410/Em:458 and Ex:410/Em:522, and the response ratio determined. Data was analyzed by non-linear regression to determine the EC50 for inhibition of Forskolin induced cAMP.

Structures can show the parent of a compound that is named as a salt. Where only a bound is given, the exact number is not on record here.

Chain of S1P1/EDG1 (P21453 whole entry): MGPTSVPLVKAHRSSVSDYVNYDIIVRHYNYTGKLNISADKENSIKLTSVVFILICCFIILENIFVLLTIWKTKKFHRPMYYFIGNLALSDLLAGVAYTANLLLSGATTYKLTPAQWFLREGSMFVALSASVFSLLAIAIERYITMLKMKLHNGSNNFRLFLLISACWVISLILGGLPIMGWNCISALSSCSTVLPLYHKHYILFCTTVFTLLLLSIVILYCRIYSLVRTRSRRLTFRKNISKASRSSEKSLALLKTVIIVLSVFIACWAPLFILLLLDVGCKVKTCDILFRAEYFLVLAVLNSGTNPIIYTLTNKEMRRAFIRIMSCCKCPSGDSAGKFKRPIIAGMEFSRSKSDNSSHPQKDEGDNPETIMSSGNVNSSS

As for `CC(C)Oc1ccc(-c2ncc(-c3cccc4c3CC[C@@H]4NC(=O)N3CCOCC3)s2)cc1C#N` [Compound 187], the EC50 was in the range of 0.5 to 5 nM.

Consider `CC(C)Oc1ccc(-c2ncc(-c3cccc4c3CC[C@@H]4NCCS(C)(=O)=O)s2)cc1C#N` [Compound 221, (S)-2-isopropoxy-5-(5-(1-((2-(methylsulfonyl)ethyl)amino)-2,3-dihydro-1H-inden-4-yl)thiazol-2-yl)benzonitrile], for which the EC50 lay in the range of 0.05 to 0.5 nM.

`CC(C)Oc1ccc(-c2nnc(-c3cccc4c3CC[C@@H]4NC(=O)N3CCC[C@H](O)C3)s2)cc1C#N` [Compound 61]: the EC50 is 0.05 to 0.5 nM. On to `CC(C)Oc1ccc(-c2nnc(-c3cccc4c3CC[C@@H]4NCCS(C)(=O)=O)s2)cc1C#N` [Compound 31, (S)-2-isopropoxy-5-(5-(1-((2-(methylsulfonyl)ethyl)amino)-2,3-dihydro-1H-inden-4-yl)-1,3,4-thiadiazol-2-yl)benzonitrile], for which the EC50 lay within 0.05 to 0.5 nM. In the case of `CNS(=O)(=O)CCNC1CCc2c(-c3cnc(-c4ccc(OC(C)C)c(C#N)c4)s3)cccc21` (centres unmarked) [Compound 219] it was 0.05 to 0.5 nM. In the case of `CC(C)Oc1ccc(-c2ncc(-c3cccc4c3CC[C@@H]4NC(=O)Cc3ccccc3)s2)cc1C#N` [Compound 83] it was more than 5 nM; in that of `CC(C)Oc1ccc(-c2nnc(-c3cccc4c3CC[C@@H]4N)s2)cc1C#N` [Compound 4, (S)-5-(5-(1-amino-2,3-dihydro-1H-inden-4-yl)-1,3,4-thiadiazol-2-yl)-2-isopropoxybenzonitrile hydrochloride], 0.5 to 5 nM; in that of `CC(C)Oc1ccc(-c2ncc(-c3cccc4c3CC[C@@H]4NS(=O)(=O)CCN3CC[C@@H](N(C)C)C3)s2)cc1C#N` [Compound 138], more than 5 nM. The result for `CC(C)Oc1ccc(-c2ncc(-c3cccc4c3CCC4NCc3ncc[nH]3)s2)cc1C#N` (stereo in doubt) [Compound 109, (R)-5-(5-(1-(((1H-imidazol-2-yl)methyl)amino)-2,3-dihydro-1H-inden-4-yl)thiazol-2-yl)-2-isopropoxybenzonitrile] reads 0.5 to 5 nM; that for `CCS(=O)(=O)N[C@H]1CCc2c(-c3cnc(-c4ccc(OC(C)C)c(C#N)c4)s3)cccc21` [Compound 113], 0.05 to 0.5 nM; that for `CC(C)Oc1ccc(-c2ncc(-c3cccc4c3CC[C@@H]4NC(=O)CO)s2)cc1C#N` [Compound 73, (S)-N-(4-(2-(3-cyano-4-isopropoxyphenyl)thiazol-5-yl)-2,3-dihydro-1H-inden-1-yl)-2-hydroxyacetamide], 0.05 to 0.5 nM. As for `CC(C)Oc1ccc(-c2nnc(-c3cccc4c3CCC4NCCS(C)(=O)=O)s2)cc1C#N` (stereo in doubt) [Compound 32, (R)-2-isopropoxy-5-(5-(1-((2-(methylsulfonyl)ethyl)amino)-2,3-dihydro-1H-inden-4-yl)-1,3,4-thiadiazol-2-yl)benzonitrile], the EC50 is less than 0.05 nM. Regarding `CC(C)Oc1ccc(-c2ncc(-c3cccc4c3CC[C@@H]4NS(=O)(=O)CCN3CCC3)s2)cc1C#N` [Compound 128], the EC50 was more than 5 nM. Take `COC(=O)CCS(=O)(=O)N[C@H]1CCc2c(-c3cnc(-c4ccc(OC(C)C)c(C#N)c4)s3)cccc21` [Compound 156]: the EC50 is 0.05 to 0.5 nM.

For `CC(C)Oc1ccc(-c2ncc(-c3cccc4c3CC[C@@H]4NC(=O)N3CCC[C@H](O)C3)s2)cc1C#N` [Compound 197], the EC50 was 0.5 to 5 nM. In the case of `CC(C)Oc1ccc(-c2ncc(-c3cccc4c3CCC4NS(=O)(=O)CC(=O)O)s2)cc1C#N` (stereo in doubt) [Compound 158, (R)-2-(N-(4-(2-(3-cyano-4-isopropoxyphenyl)thiazol-5-yl)-2,3-dihydro-1H-inden-1-yl)sulfamoyl)acetic acid] it was less than 0.05 nM. In the case of `CC(C)Oc1ccc(-c2nnc(-c3cccc4c3CC[C@@H]4NC(=O)CO)s2)cc1C#N` [Compound 7, (S)-N-(4-(5-(3-cyano-4-isopropoxyphenyl)-1,3,4-thiadiazol-2-yl)-2,3-dihydro-1H-inden-1-yl)-2-hydroxyacetamide] it was less than 0.05 nM. The result for `CC(C)Oc1ccc(-c2ncc(-c3cccc4c3CC[C@@H]4NCC(=O)O)s2)cc1C#N` [Compound 97, (S)-2-((4-(2-(3-cyano-4-isopropoxyphenyl)thiazol-5-yl)-2,3-dihydro-1H-inden-1-yl)amino)acetic acid] reads 0.05 to 0.5 nM. Turning to `CC(C)Oc1ccc(-c2ncc(-c3cccc4c3CC[C@@H]4NS(=O)(=O)CCN3CCC(N(C)C)CC3)s2)cc1C#N` [Compound 153], the EC50 was more than 5 nM. As to `CCOc1ccc(-c2nnc(-c3cccc4c3CC[C@@H]4N)s2)cc1OCC` [Compound 6], the EC50 fell in the range of 0.5 to 5 nM. In the case of `CC(C)Oc1ccc(-c2ncc(-c3cccc4c3CC[C@@H]4NC(=O)N3CCC(O)CC3)s2)cc1C#N` [Compound 202] it was 0.5 to 5 nM; in that of `CC(C)Oc1ccc(-c2ncc(-c3cccc4c3CC[C@@H]4NCC(=O)N3CCCC3)s2)cc1C#N` [Compound 101], more than 5 nM. With `CC(C)Oc1ccc(-c2nnc(-c3cccc4c3CC[C@@H]4NS(=O)(=O)CC(=O)N(C)C)s2)cc1C#N` [Compound 42, (S)-2-(N-(4-(5-(3-cyano-4-isopropoxyphenyl)-1,3,4-thiadiazol-2-yl)-2,3-dihydro-1H-inden-1-yl)sulfamoyl)-N,N-dimethylacetamide], the EC50 lay in the range of 0.05 to 0.5 nM.

With `CC(C)Oc1ccc(-c2ncc(-c3cccc4c3CC[C@@H]4NS(=O)(=O)CCN3CCC[C@H](O)C3)s2)cc1C#N` [Compound 142], the EC50 lay within 0.5 to 5 nM.

As to `CC(C)Oc1ccc(-c2nnc(-c3cccc4c3CC[C@@H]4NC(=O)N3CC(C(=O)O)C3)s2)cc1C#N` [Compound 50], the EC50 fell in the range of 0.05 to 0.5 nM. The result for `CC(C)Oc1ccc(-c2ncc(-c3cccc4c3CC[C@@H]4NS(C)(=O)=O)s2)cc1C#N` [Compound 112, (S)-N-(4-(2-(3-cyano-4-isopropoxyphenyl)thiazol-5-yl)-2,3-dihydro-1H-inden-1-yl)methanesulfonamide] reads 0.05 to 0.5 nM; that for `CC(C)Oc1ccc(-c2csc(-c3cccc4c3CCC4O)c2)cc1C#N` (centres unmarked) [Compound 227, 5-(5-(1-hydroxy-2,3-dihydro-1H-inden-4-yl)thiophen-3-yl)-2-isopropoxybenzonitrile], more than 5 nM. In the case of `CC(C)Oc1ccc(-c2nnc(-c3cccc4c3CC[C@@H]4NS(=O)(=O)CC(=O)O)s2)cc1C#N` [Compound 40, (S)-2-(N-(4-(5-(3-cyano-4-isopropoxyphenyl)-1,3,4-thiadiazol-2-yl)-2,3-dihydro-1H-inden-1-yl)sulfamoyl)acetic acid] it was 0.05 to 0.5 nM.

On to `CC(C)Oc1ccc(-c2nnc(-c3cccc4c3CC[C@@H]4NCCO)s2)cc1C#N` [Compound 18, (S)-5-(5-(1-((2-hydroxyethyl)amino)-2,3 dihydro-1H-inden-4-yl)-1,3,4-thiadiazol-2-yl)-2-isopropoxy-benzonitrile], for which the EC50 fell in the range of 0.5 to 5 nM. The result for `CC(C)Oc1ccc(-c2ncc(-c3cccc4c3CC[C@@H]4NS(=O)(=O)CCN3CCNCC3)s2)cc1C#N` [Compound 151] reads more than 5 nM; that for `CC(C)Oc1ccc(-c2nnc(-c3cccc4c3CC[C@@H]4O)s2)cc1C#N` [Compound 1, (S)-5-(5-(1-hydroxy-2,3-dihydro-1H-inden-4-yl)-1,3,4-thiadiazol-2-yl)-2-isopropoxybenzonitrile], 0.05 to 0.5 nM.

For `CC(C)Oc1ccc(-c2ncc(-c3cccc4c3CC[C@@H]4NC(=O)CN)s2)cc1C#N` [Compound 78], the EC50 lay in the range of 0.5 to 5 nM.
